Data as given in patent US20040082614A1, “Methods of treating infection using anitbiotics and glycogen phosphorylase inhibitors” (Pfizer Inc., priority 2002, published 2004).
Read-outs that look alike come from different tables or passages of the source. Values belong to the compound of their own block, whether it stands above or below them.

Key:
Type in all cases: cell-based
Chlamydia pneumonia [1] = assay: Minimum inhibitory concentration (MIC) determination in Hep2 cells infected with Chlamydia pneumonia, inclusion bodies by fluorescent microscopy; conditions: for antibacterial effects of the combination with azithromycin: MIC and MBC
Protocol: (§1) Hep2 cells maintained in Isocove's Modified Dulbecco's Medium (IMDM) were infected with Chlamydia pneumonia (0.5 MOI for two hours after one hour centrifugation). Cells were then treated with Compound A (0, 5, 10, 20, 30 or 40 μg/ml) or Compound B (0, 5, 10, 20, 30 or 40 μg/ml) alone and/or in combination with azithromycin (Pfizer, Inc., New York, N.Y.) 0, 0.005, 0.0158, 0.050, 0.158, or 0.5 μg/ml). For minimum inhibitory concentration (MIC) determination, cells were terminated for analysis at 72 h after the addition of drugs. For minimum bacteriocidal concentration (MBC) determination, drugs were removed at 72 h post-treatment, the media was replaced, and cells were maintained for an additional 72 h before termination. At termination, cells were analyzed for quantitation of inclusion bodies using fluorescent microscopy, and general cell viability by microscopic visualization.

Chlamydia pneumonia [2] = assay: Minimum bacteriocidal concentration (MBC) determination in Hep2 cells infected with Chlamydia pneumonia, drugs removed at 72 h, further 72 h; conditions: for reduction of the MBC for azithromycin by the glycogen phosphorylase inhibitor: summary statement, combination with azithromycin
Protocol: as §1

Hep2 cells = assay: General cell viability / host cell appearance by microscopic visualization
Protocol: as §1

[3] = Chlamydia, 72 h, drug alone, 72 h after addition of drugs, read-out: MIC
[4] = combined with 5 μg/ml Compound A
[5] = combined with 30 μg/ml Compound B
[6] = Chlamydia, 72 h, drug alone, drugs removed at 72 h, additional 72 h, read-out: MBC

MIC (Chlamydia pneumonia [1]; [3]): 0.158 µg/mL
MIC (Chlamydia pneumonia [1]; Chlamydia, combined with 5 μg/ml Compound A, read-out: azithromycin concentration required for MIC): 0.05 µg/mL
MIC (Chlamydia pneumonia [1]; Chlamydia, combined with 10 μg/ml Compound A, read-out: azithromycin concentration required for MIC): 0.0158 µg/mL
MIC (Chlamydia pneumonia [1]; Chlamydia, combined with 10 μg/ml Compound B, read-out: azithromycin concentration required for MIC): 0.05 µg/mL
MIC (Chlamydia pneumonia [1]; Chlamydia, combined with 30 μg/ml Compound B, read-out: azithromycin concentration required for MIC): 0.0158 µg/mL
decrease in azithromycin concentration required for MIC (Chlamydia pneumonia [1]; [4]): 3 fold
decrease in azithromycin concentration required for MIC (Chlamydia pneumonia [1]; combined with 10 μg/ml Compound A): 10 fold
decrease in azithromycin concentration required for MIC (Chlamydia pneumonia [1]; combined with 10 μg/ml Compound B): 3 fold
decrease in azithromycin concentration required for MIC (Chlamydia pneumonia [1]; [5]): 10 fold
SMILES: CC[C@H]1OC(=O)[C@H](C)[C@@H](O[C@H]2C[C@@](C)(OC)[C@@H](O)[C@H](C)O2)[C@H](C)[C@@H](O[C@@H]2O[C@H](C)C[C@H](N(C)C)[C@H]2O)[C@](C)(O)C[C@@H](C)CN(C)[C@H](C)[C@@H](O)[C@]1(C)O [Azithromycin, 9a-aza-9a-methyl-9-deoxo-9a-homoerythromycin A]
MBC (Chlamydia pneumonia [2]; [6]): 0.5 µg/mL
MBC (Chlamydia pneumonia [2]; Chlamydia, combined with 5 μg/ml Compound A, read-out: azithromycin concentration required for MBC): 0.158 µg/mL
MBC (Chlamydia pneumonia [2]; Chlamydia, combined with 20 μg/ml Compound A, read-out: azithromycin concentration required for MBC): 0.05 µg/mL
MBC (Chlamydia pneumonia [2]; Chlamydia, combined with 30 μg/ml Compound B, read-out: azithromycin concentration required for MBC): 0.158 µg/mL
decrease in azithromycin concentration required for MBC (Chlamydia pneumonia [2]; [4]): 3 fold
decrease in azithromycin concentration required for MBC (Chlamydia pneumonia [2]; combined with 20 μg/ml Compound A): 10 fold
decrease in azithromycin concentration required for MBC (Chlamydia pneumonia [2]; [5]): 3 fold

MIC (Chlamydia pneumonia [1]; [3]): 20 µg/mL
SMILES: O=C(N[C@@H](Cc1ccc(F)cc1)C(=O)N1CCC(O)CC1)c1cc2cc(Cl)ccc2[nH]1 [Compound A, 5-chloro-1H-indole-2-carboxylic acid [(1S)-(4-fluoro-benzyl)-2-(4-hydroxypiperidin-1-yl)-2-oxo-ethyl]-amide]
concentrations associated with changes in host cell appearance (Hep2 cells; Hep2 host cells): ≥ 30000 ng/mL
antibacterial effects of the combination with azithromycin (Chlamydia pneumonia [1]): synergy of antibacterial effects
MBC (Chlamydia pneumonia [2]; [6]): 30 µg/mL
reduction of the MBC for azithromycin by the glycogen phosphorylase inhibitor (Chlamydia pneumonia [2]): 3-10 fold

MIC (Chlamydia pneumonia [1]; drug alone, 72 h after addition of drugs): > 40 µg/mL
SMILES: O=C(N[C@@H](Cc1ccccc1)[C@@H](O)C(=O)N1C[C@@H](O)[C@@H](O)C1)c1cc2cc(Cl)ccc2[nH]1 [Compound B]
changes in host cell appearance (Hep2 cells): not associated with any changes in host cell appearance
antibacterial effects of the combination with azithromycin (Chlamydia pneumonia [1]): synergy of antibacterial effects
MBC (Chlamydia pneumonia [2]; drug alone, drugs removed at 72 h, additional 72 h): > 40 µg/mL
reduction of the MBC for azithromycin by the glycogen phosphorylase inhibitor (Chlamydia pneumonia [2]): 3 fold
